pIC50, pKi: −log10 of the molar value. Calls of active or inactive are those of the source. The calls are words filed in the database; no cut-off is given here.
Legend:
[1] = Effective permeability by PAMPA-BBB penetration assay; format: ADME; details: read-out: Peff
[2] = target: Acetylcholinesterase (Electrophorus electricus) (UniProt O42275); assay: Inhibition of Electrophorus electricus AChE at 10 uM pre-incubated for 5 mins before acetylthiocholine iodide substrate addition and measured after 2 mins
[3] = target: Cholinesterase (Equus caballus) (UniProt P81908); assay: Inhibition of equine serum BChE at 10 uM pre-incubated for 5 mins before butyrylthiocholine iodide substrate addition and measured after 2 mins
Mus musculus [4] = assay: Improvement in cognition in ICR mouse model of Abeta(1-42)-induced cognition-impairment assessed as spontaneous alternation performance level at 15 mg/kg, po dosed from days 3 to 14 and measured on day 15 by Y maze test (reference value: 34.43%); format: functional
Mus musculus [5] = assay: Improvement in cognition in ICR mouse model of Abeta(1-42)-induced cognition-impairment assessed as escape latency time at 15 mg/kg, po dosed from days 3 to 14 by Morris water maze test (reference value: 48.9 secs); format: functional
Mus musculus [6] = assay: Improvement in cognition in ICR mouse model of Abeta(1-42)-induced cognition-impairment assessed as improvement in trajectories to platform at 15 mg/kg, po dosed from days 3 to 14 by Morris water maze test; format: functional, organism-based
Mus musculus [7] = assay: Reduction in the Abeta(1-42) peptide level in ICR mouse model of Abeta(1-42)-induced cognition-impairment at 15 mg/kg, po dosed from days 3 to 14 by ELISA relative to control; format: functional; design: scale not given: the % may be the effect or the level left
[8] = Toxicity in ICR mouse assessed as induction of abnormal behaviors at 1 mg/kg, ig; format: organism-based; details: in vivo, po
[9] = Toxicity in ICR mouse model of Abeta(1-42)-induced cognition-impairment assessed as effect on body weight at 15 mg/kg, po dosed from days 3 to 14; format: organism-based; details: in vivo
L02 = assay: Toxicity in human L02 cells assessed as reduction in cell viability at 2.5 to 100 uM incubated for 24 hrs by MTT assay; format: cell-based; details: l02, 24 h
Acetylcholinesterase = Acetylcholinesterase (Electrophorus electricus, UniProt O42275); assay: Inhibition of Electrophorus electricus AChE pre-incubated for 5 mins before acetylthiocholine iodide substrate addition and measured after 2 mins
[10] = Toxicity in ICR mouse assessed as induction of animal death at 1 mg/kg, ig; format: organism-based; details: in vivo, po
[11] = Toxicity in ICR mouse model of scopolamine-induced cognition-impairment assessed as induction of behavioral abnormities at 15 to 30 mg/kg, po dosed 30 mins before scopolamine challenge for 10 days; format: organism-based; details: in vivo
[12] = Hepatotoxicity in ICR mouse assessed as induction of fatty degeneration of hepatocytes of surrounding intermediate and periportal zones at 30 mg/kg, ig measured after 8 to 36 hrs post dose by immunohistochemical staining assay; format: toxicity, organism-based; details: in vivo, po
Cholinesterase [13] = target: T1, Cholinesterase (Equus caballus, UniProt P81908); assay: Inhibition of equine serum BChE pre-incubated for 5 mins before butyrylthiocholine iodide substrate addition and measured after 2 mins
PC-12 [14] = assay: Toxicity in rat PC12 cells assessed as reduction in cell viability at 100 uM incubated for 24 hrs by MTT assay relative to control; format: cell-based; details: pc-12, 24 h
SH-SY5Y [15] = assay: Neuroprotection against Abeta(1-42)-induced cytotoxicity in human SH-SY5Y cells assessed as increase in cell viability incubated for 1 hr before Abeta(1-42) challenge and measured after 24 hrs by MTT assay; format: functional, cell-based
[16] = Intrinsic clearance in human liver microsomes at 1 uM in presence of NADPH by LC-MS/MS analysis; format: ADME, Microsome; details: read-out: CLH
PC-12 [17] = assay: Toxicity in rat PC12 cells assessed as reduction in cell viability at 2.5 to 50 uM incubated for 24 hrs by MTT assay; format: cell-based; details: pc-12, 24 h
SH-SY5Y [18] = assay: Toxicity in human SH-SY5Y cells assessed as reduction in cell viability at 2.5 to 50 uM incubated for 24 hrs by MTT assay; format: cell-based
[19] = Half life in human liver microsomes at 1 uM in presence of NADPH by LC-MS/MS analysis; format: ADME, Microsome
[20] = Toxicity in ICR mouse assessed as effect on body weight at 1 mg/kg, ig; format: organism-based; details: in vivo, po
[21] = Selectivity index, ratio of inhibition of Electrophorus electricus AChE pre-incubated for 5 mins before acetylthiocholine iodide substrate addition and measured after 2 mins to IC50 for inhibition of equine serum BChE pre-incubated for 5 mins before butyrylthiocholine iodide substrate addition and measured after 2 mins
Mus musculus [22] = assay: Improvement in cognition in ICR mouse model of scopolamine-induced cognition-impairment assessed as improvement in escape latency at 15 to 30 mg/kg, po dosed 30 mins before scopolamine challenge for 10 days by Morris water maze test; format: functional, organism-based
Mus musculus [23] = assay: Improvement in cognition in ICR mouse model of scopolamine-induced cognition-impairment assessed as improvement in trajectories to platform at 15 to 30 mg/kg, po dosed 30 mins before scopolamine challenge for 10 days by Morris water maze test; format: functional, organism-based
Cholinesterase [24] = target: Cholinesterase (Homo sapiens, UniProt P06276); assay: Inhibition of human BChE pre-incubated for 5 mins before butyrylthiocholine iodide substrate addition and measured after 2 mins
[25] = Hepatotoxicity in ICR mouse assessed as induction of pericentral necrosis at 30 mg/kg, ig measured after 8 to 36 hrs post dose by immunohistochemical staining assay; format: toxicity, organism-based; details: in vivo, po
Cholinesterase [26] = target: T1, Cholinesterase; assay: Noncompetitive inhibition of equine serum BChE pre-incubated for 5 mins before butyrylthiocholine iodide substrate addition and measured after 2 mins by Lineweaver-Burk plot analysis
HepG2 = assay: Toxicity in human HepG2 cells assessed as toxic dose for reduction in cell viability incubated for 24 hrs by MTT assay; format: cell-based; details: hepg2, 24 h
[27] = target: Cholinesterase (Equus caballus) (UniProt P81908); assay: Noncompetitive inhibition of equine serum BChE assessed as reduction in enzymatic velocity pre-incubated for 5 mins before butyrylthiocholine iodide substrate addition and measured after 2 mins by Lineweaver-Burk plot analysis
SH-SY5Y [28] = assay: Toxicity in human SH-SY5Y cells assessed as reduction in cell viability at 100 uM incubated for 24 hrs by MTT assay relative to control; format: cell-based
[29] = Toxicity in ICR mouse model of scopolamine-induced cognition-impairment assessed as induction of death at 15 to 30 mg/kg, po dosed 30 mins before scopolamine challenge for 10 days; format: organism-based; details: in vivo

Chain of Acetylcholinesterase (O42275 whole entry): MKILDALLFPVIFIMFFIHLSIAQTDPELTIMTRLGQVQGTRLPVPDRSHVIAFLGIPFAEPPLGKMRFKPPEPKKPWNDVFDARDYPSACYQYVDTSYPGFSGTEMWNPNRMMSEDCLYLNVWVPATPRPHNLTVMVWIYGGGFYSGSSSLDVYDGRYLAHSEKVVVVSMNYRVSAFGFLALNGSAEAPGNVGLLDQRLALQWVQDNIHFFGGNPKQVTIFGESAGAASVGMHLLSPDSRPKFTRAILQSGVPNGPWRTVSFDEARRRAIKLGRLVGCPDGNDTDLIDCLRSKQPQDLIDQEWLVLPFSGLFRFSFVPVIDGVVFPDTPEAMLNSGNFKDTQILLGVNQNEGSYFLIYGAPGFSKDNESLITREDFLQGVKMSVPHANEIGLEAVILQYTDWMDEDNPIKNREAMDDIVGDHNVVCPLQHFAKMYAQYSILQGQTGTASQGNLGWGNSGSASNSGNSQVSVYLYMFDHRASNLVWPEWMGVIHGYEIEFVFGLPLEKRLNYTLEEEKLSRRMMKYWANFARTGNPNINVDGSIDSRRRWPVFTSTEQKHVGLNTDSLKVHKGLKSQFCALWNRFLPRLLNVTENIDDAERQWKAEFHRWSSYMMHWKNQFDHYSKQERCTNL
Chain of Acetylcholinesterase (Electrophorus electricus) (O42275 24-633 limits assumed): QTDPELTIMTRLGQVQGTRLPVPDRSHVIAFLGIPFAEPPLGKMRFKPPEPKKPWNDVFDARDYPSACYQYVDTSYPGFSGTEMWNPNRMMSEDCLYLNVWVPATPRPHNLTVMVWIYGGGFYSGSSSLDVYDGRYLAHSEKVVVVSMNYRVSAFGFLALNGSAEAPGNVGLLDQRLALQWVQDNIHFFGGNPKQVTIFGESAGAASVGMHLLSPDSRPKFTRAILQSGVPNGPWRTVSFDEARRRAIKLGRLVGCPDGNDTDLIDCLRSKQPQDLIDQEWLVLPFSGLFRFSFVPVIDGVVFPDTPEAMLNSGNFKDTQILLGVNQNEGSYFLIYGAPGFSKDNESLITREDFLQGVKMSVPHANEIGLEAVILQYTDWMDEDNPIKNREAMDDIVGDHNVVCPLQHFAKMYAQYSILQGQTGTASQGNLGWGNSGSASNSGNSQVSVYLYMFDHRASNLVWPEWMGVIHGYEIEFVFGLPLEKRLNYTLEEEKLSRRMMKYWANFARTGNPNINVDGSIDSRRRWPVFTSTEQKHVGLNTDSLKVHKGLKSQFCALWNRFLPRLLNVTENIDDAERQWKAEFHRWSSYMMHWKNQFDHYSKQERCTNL
Chain of Cholinesterase (Equus caballus) (P81908 whole entry): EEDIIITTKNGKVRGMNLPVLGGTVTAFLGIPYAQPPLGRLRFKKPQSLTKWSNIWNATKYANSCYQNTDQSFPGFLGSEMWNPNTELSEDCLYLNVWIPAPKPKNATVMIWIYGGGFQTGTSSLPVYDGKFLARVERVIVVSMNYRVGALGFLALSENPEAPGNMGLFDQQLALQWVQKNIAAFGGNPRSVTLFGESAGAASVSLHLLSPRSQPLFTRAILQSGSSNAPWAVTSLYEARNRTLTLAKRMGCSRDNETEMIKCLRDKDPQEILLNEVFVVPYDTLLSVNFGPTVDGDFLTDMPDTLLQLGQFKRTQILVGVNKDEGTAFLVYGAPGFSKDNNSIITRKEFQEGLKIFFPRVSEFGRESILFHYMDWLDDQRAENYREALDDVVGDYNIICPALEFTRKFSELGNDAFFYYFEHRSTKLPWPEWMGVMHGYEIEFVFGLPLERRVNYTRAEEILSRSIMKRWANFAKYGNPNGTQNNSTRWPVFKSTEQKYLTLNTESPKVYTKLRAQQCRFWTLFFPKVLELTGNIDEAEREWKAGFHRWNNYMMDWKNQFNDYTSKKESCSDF
T1 sequence (P81908 whole entry): as above
Chain of Cholinesterase (Homo sapiens, UniProt P06276) (P06276 whole entry): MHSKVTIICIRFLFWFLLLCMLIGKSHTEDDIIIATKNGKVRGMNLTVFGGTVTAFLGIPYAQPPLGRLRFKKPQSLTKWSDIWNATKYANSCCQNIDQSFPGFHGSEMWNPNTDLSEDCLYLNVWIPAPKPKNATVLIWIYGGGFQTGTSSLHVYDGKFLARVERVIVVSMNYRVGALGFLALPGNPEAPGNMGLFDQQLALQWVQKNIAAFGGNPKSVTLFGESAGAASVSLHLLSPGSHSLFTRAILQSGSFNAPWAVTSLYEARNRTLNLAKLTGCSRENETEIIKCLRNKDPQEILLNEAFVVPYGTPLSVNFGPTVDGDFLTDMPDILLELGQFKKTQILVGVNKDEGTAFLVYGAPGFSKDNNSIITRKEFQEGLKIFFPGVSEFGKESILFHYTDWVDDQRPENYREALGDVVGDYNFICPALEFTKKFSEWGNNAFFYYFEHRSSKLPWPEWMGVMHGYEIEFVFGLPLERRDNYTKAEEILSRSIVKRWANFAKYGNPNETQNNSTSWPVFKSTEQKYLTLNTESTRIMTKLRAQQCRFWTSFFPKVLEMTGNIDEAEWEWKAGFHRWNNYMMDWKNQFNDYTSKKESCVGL

CN(C)CCCN1c2ccccc2Sc2ccc(Cl)cc21 [CHLORPROMAZINE]
Papp [1]: 12.4 ×10⁻⁶ cm/s

CN(CCc1noc(-c2cc3ccccc3[nH]2)n1)C(=O)c1ccc(N(C)C)cc1
inhibition [2]: 39.4% | inhibition [3]: 35.4%

C[C@]12CC[C@@H]3c4ccc(O)cc4CC[C@H]3[C@@H]1CC[C@@H]2O [ESTRADIOL]
Papp [1]: 20.5 ×10⁻⁶ cm/s

COc1cc2c(cc1OC)C(=O)C(CC1CCN(Cc3ccccc3)CC1)C2 (stereo not drawn) [DONEPEZIL]
Activity (Mus musculus [4]): 65.23% | Time (Mus musculus [5]): 15.3 s | Activity (Mus musculus [6]): Active | Activity (Mus musculus [7]): 24.08%

COCCN(Cc1csc(COc2ccc(C)cc2)n1)C(=O)c1ccc(OC)cc1
inhibition [2]: 5.79% | inhibition [3]: 7.17%

CN(CCc1noc(-c2cc3ccccc3[nH]2)n1)C(=O)c1ccc(C(C)(C)C)cc1
inhibition [2]: 51.6% | inhibition [3]: 20.3%

Cc1ccc2cc(NC(=O)Cn3c(-c4nonc4N)nc4ccccc43)ccc2n1
Activity [8]: Non-Toxic | inhibition [2]: 15.3% | Activity [9]: Non-Toxic | Activity (L02): Non-Toxic | pIC50 (Acetylcholinesterase): < 4.00 | Activity [10]: Non-Toxic | Activity [11]: Non-Toxic | Activity (Mus musculus [4]): 63.44% | Activity [12]: Non-Toxic | pIC50 (Cholinesterase [13]): 6.74 | Activity (PC-12 [14]): 50% | Activity (SH-SY5Y [15]): Dose-dependent effect | CLint scaled at 1 µM [16]: 41.5 mL/min/kg | Time (Mus musculus [5]): 8.83 s | Activity (PC-12 [17]): Non-Toxic | Activity (SH-SY5Y [18]): Non-Toxic | half-life at 1 µM [19]: 41.9 min | Activity [20]: Non-Toxic | Ratio IC50 [21]: > 500 | Activity (Mus musculus [22]): Dose-dependent effect | Activity (Mus musculus [23]): Dose-dependent effect | Activity (Mus musculus [6]): Active | pIC50 (Cholinesterase [24]): 6.49 | Activity [25]: Non-Toxic | Activity (Mus musculus [7]): 40.56% | pKi (Cholinesterase [26]): 6.63 | Activity (HepG2): > 20 µM | inhibition [27]: Dose-dependent effect | Activity (SH-SY5Y [28]): 50% | Activity [29]: Non-Toxic | inhibition [3]: 96.5% | Papp [1]: 7.84 ×10⁻⁶ cm/s

CC(=O)[C@H]1CC[C@H]2[C@@H]3CCC4=CC(=O)CC[C@]4(C)[C@H]3CC[C@]12C [PROGESTERONE]
Papp [1]: 15.5 ×10⁻⁶ cm/s

COc1cc2c(cc1NC(=O)C(=O)c1c(-c3ccccc3)[nH]c3ccccc13)oc1ccccc12
inhibition [2]: -4.57% | inhibition [3]: 0.73%

C[C@]12CCC(=O)C=C1CC[C@@H]1[C@@H]2C(=O)C[C@]2(C)C(=O)CC[C@@H]12 [ADRENOTERONE]
Papp [1]: 6.05 ×10⁻⁶ cm/s

COc1ccc(-c2cccc(-n3cncc3C(=O)N3Cc4ccccc4C3)c2)cc1OC
inhibition [2]: 6.29% | pIC50 (Cholinesterase [13]): 4.76 | inhibition [3]: 53.4%

CCCN(Cc1csc(COc2ccc(C)cc2)n1)C(=O)c1ccc2c(c1)OCO2
inhibition [2]: -0.26% | pIC50 (Cholinesterase [13]): 4.85 | inhibition [3]: 54.8%

COc1ccc(C2=C(Nc3ccc4oc5ccccc5c4c3)c3ccccc3C2=O)cc1
inhibition [2]: 42.6% | inhibition [3]: 4.03%

CN1C(C(=O)Nc2ccccn2)=C(O)c2ccccc2S1(=O)=O [PIROXICAM]
Papp [1]: 1.69 ×10⁻⁶ cm/s

O=C(c1ccc(F)cc1)C1CCN(CCn2c(=O)[nH]c3ccccc3c2=O)CC1 [KETANSERIN]
CLint scaled at 1 µM [16]: 55.3 mL/min/kg | half-life at 1 µM [19]: 31.4 min

COc1ccc(-c2noc(CN(C(=O)c3ccc4c(c3)OCO4)C3CCCCC3)n2)cc1
inhibition [2]: -3.2% | inhibition [3]: 4.33%

CCc1noc(-c2cnc3nc(C)ccc3c2Nc2ccc3c(c2)OCCO3)n1
inhibition [2]: 50.6% | pIC50 (Acetylcholinesterase): 5.81 | inhibition [3]: 1.63%

Clc1cccc(Cl)c1N=C1NCCN1 [CLONIDINE]
Papp [1]: 8.8 ×10⁻⁶ cm/s

Cc1ccc(-c2nc3ccccc3o2)cc1NCc1cc(Cc2ccccc2)ccc1O
inhibition [2]: 6.25% | inhibition [3]: 8.49%

O=C(c1ccc(C(F)(F)F)cc1)N(CCc1nc(-c2ccc(C(F)(F)F)cc2)no1)Cc1ccco1
inhibition [2]: -0.61%

NCCc1ccc(O)c(O)c1 [DOPAMINE]
Papp [1]: 3.3 ×10⁻⁶ cm/s

Cc1ccc(OCc2nc(CN(CC(C)C)C(=O)c3ccc4c(c3)OCO4)cs2)cc1
inhibition [2]: -6.37% | pIC50 (Acetylcholinesterase): 4.96 | pIC50 (Cholinesterase [13]): 4.75 | inhibition [3]: 54%

Source: ChEMBL document CHEMBL4622982, “Discovery and Biological Evaluation of a Novel Highly Potent Selective Butyrylcholinsterase Inhibitor” (J Med Chem, 2020)
